Laboratory results from patent US11161850B2, “Fused pyrazine derivatives as A2A / A2B inhibitors” (Incyte Corporation, priority 2018, dated 2021).
Like-named read-outs stand apart in the source and are kept apart here.

How the values were obtained:
Adenosine A2A = Adenosine A2A (Homo sapiens (Human), UniProt P29274); assay: A2A Tag-Lite HTRF assay; format: binding
Source text: Example C. A2A Tag-Lite® HTRF Assay

[1] = biological target: human adenosine A2B receptor (Homo sapiens (Human), UniProt P29275); assay: Adenosine A2B Receptor Cyclic AMP GS Assay; format: cell-based; details: HEK-293 cells expressing human A2B, agonist NECA 12 nM
Outline: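 Stably transfected HEK-293 cells were preincubated with compound for 30 min at room temperature, then stimulated with 12 nM NECA for 60 min. cAMP accumulation was read by FRET (665/620 ratio), and EC50 was fitted from percent of control versus log compound concentration.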

[2] = Tag-Lite Adenosine A2A labeled cells, fluorescent ligand 12.5 nM, read-out: A2A_Ki
[3] = read-out: A2A_Ki, Tag-Lite Adenosine A2A labeled cells, fluorescent ligand 12.5 nM

Chain of human adenosine A2B receptor (P29275 whole entry): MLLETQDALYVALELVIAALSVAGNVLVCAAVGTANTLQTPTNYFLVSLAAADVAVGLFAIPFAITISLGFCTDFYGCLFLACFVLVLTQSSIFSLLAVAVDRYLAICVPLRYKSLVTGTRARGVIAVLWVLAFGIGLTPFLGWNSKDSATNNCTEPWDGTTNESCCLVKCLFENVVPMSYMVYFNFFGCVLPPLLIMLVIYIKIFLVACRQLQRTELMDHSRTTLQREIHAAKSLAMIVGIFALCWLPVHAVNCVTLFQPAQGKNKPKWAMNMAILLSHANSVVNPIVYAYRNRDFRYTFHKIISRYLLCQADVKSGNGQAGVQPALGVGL
Chain of Adenosine A2A (P29274 whole entry): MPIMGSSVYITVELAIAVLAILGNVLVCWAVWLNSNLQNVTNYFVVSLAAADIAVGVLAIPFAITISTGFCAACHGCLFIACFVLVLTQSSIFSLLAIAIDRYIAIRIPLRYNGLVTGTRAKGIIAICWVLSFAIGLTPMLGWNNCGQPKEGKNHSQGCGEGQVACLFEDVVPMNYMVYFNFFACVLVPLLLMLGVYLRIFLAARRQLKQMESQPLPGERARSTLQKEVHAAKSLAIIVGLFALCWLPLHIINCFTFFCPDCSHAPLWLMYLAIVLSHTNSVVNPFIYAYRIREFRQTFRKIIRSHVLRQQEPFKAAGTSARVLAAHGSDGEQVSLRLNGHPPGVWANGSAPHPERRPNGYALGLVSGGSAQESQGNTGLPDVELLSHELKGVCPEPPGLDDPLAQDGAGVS

SMILES | Ki (Adenosine A2A; [2]) [nM] | EC50 ([1]; A2B_cAMP_EC50 (nM)) [nM] | Ki (Adenosine A2A) [nM] | Ki (Adenosine A2A; [3]) [nM] | EC50 ([1]; read-out: A2B_cAMP_EC50) [nM]
N#Cc1cccc(-c2cn3nc(C(O)c4c(F)cccc4CN4CCN5C(=O)CCC5C4)nc3c(N)n2)c1F (racemic) [Example 113, 3-(8-amino-2-((2-fluoro-6-((6-oxohexahydropyrrolo[1,2-a]pyrazin-2(1H)-yl)methyl)phenyl)(hydroxy)methyl)-[1,2,4]triazolo[1,5-a]pyrazin-6-yl)-2-fluorobenzonitrile] | < 10 | 10 to 100 | – | – | –
N#Cc1cccc(-c2nc(N)c3nc(Cc4ccccn4)nn3c2-c2ccc(O)nc2)c1 [Example 62, 3-(8-amino-5-(6-hydroxypyridin-3-yl)-2-(pyridin-2-ylmethyl)-[1,2,4]triazolo[1,5-a]pyrazin-6-yl)benzonitrile] | < 10 | < 10 | – | – | –
N#Cc1cccc(-c2cn3nc(Cc4ccccn4)cc3c(N)n2)c1 [Example 16, 3-(4-Amino-2-(pyridin-2-ylmethyl)pyrazolo[1,5-a]pyrazin-6-yl)benzonitrile] | < 10 | < 10 | – | – | –
Cc1cc(-c2c(-c3cccc(C#N)c3F)nc(N)c3nc(C(O)c4c(F)cccc4F)nn23)cc(C)n1 (stereo not drawn) [Example 126, 3-(8-amino-2-((2,6-difluorophenyl)(hydroxy)methyl)-5-(2,6-dimethylpyridin-4-yl)-[1,2,4]triazolo[1,5-a]pyrazin-6-yl)-2-fluorobenzonitrile] | < 10 | 10 to 100 | – | – | –
CNC(c1nc2c(N)nc(-c3cccc(C#N)c3)c(-c3ocnc3C)n2n1)c1c(F)cccc1F (stereo not drawn) [Example 78, 3-(8-amino-2-((2,6-difluorophenyl)(methylamino)methyl)-5-(4-methyloxazol-5-yl)-[1,2,4]triazolo[1,5-a]pyrazin-6-yl)benzonitrile] | < 10 | < 10 | – | – | –
N#Cc1cccc(-c2nc(N)c3cc(C(=O)N4CCC4)nn3c2-c2ccncn2)c1 [Example 7, 3-(4-Amino-2-(azetidine-1-carbonyl)-7-(pyrimidin-4-yl)pyrazolo[1,5-a]pyrazin-6-yl)benzonitrile] | < 10 | < 10 | – | – | –
Cc1cnccc1-c1c(-c2cccc(C#N)c2)nc(N)c2nc(Cc3ccccn3)nn12 [Example 44, 3-(8-Amino-5-(3-methylpyridin-4-yl)-2-(pyridin-2-ylmethyl)-[1,2,4]triazolo[1,5-a]pyrazin-6-yl)benzonitrile] | < 10 | < 10 | – | – | –
Cc1ncoc1-c1c(-c2cccc(C#N)c2)nc(N)c2nc(C(=O)N3CCC3)nn12 [Example 61, 3-(8-Amino-2-(azetidine-1-carbonyl)-5-(4-methyloxazol-5-yl)-[1,2,4]triazolo[1,5-a]pyrazin-6-yl)benzonitrile] | < 10 | < 10 | – | – | –
Cc1ncoc1-c1c(-c2cccc(C#N)c2)nc(N)c2nc(C(N)c3ccccc3F)nn12 (stereo not drawn) [Example 80, 3-(8-amino-2-(amino(2-fluorophenyl)methyl)-5-(4-methyloxazol-5-yl)-[1,2,4]triazolo[1,5-a]pyrazin-6-yl)benzonitrile] | < 10 | < 10 | – | – | –
CCNC(=O)c1cc2c(N)nc(-c3cccc(C#N)c3)c(C3(C(F)(F)F)CC3)n2n1 [Example 6, 4-Amino-6-(3-cyanophenyl)-N-ethyl-7-(1-(trifluoromethyl)cyclopropyl)pyrazolo[1,5-a]pyrazine-2-carboxamide] | – | > 1000 | 10 to 100 | – | –
Cn1cc(-c2ccccc2Cc2nc3c(N)nc(-c4cccc(C#N)c4)c(-c4ccncn4)n3n2)cn1 [Example 41, 3-(8-Amino-2-(2-(1-methyl-1H-pyrazol-4-yl)benzyl)-5-(pyrimidin-4-yl)-[1,2,4]triazolo[1,5-a]pyrazin-6-yl)benzonitrile] | < 10 | < 10 | – | – | –
N#Cc1cccc(-c2nc(N)c3nc(Cc4c(F)cccc4CN4CC[C@H](C(=O)O)C4)nn3c2-c2ccncn2)c1 [Example 30, (S)-1-(2-((8-Amino-6-(3-cyanophenyl)-5-(pyrimidin-4-yl)-[1,2,4]triazolo[1,5-a]pyrazin-2-yl)methyl)-3-fluorobenzyl)pyrrolidine-3-carboxylic Acid] | < 10 | 10 to 100 | – | – | –
N#Cc1cccc(-c2nc(N)c3nc(C(O)c4ccccc4F)nn3c2-c2ccncn2)c1 (single isomer, unassigned) [Example 55, 3-(8-Amino-2-((2-fluorophenyl)(hydroxy)methyl)-5-(pyrimidin-4-yl)-[1,2,4]triazolo[1,5-a]pyrazin-6-yl)benzonitrile] | – | < 10 | < 10 | – | –
N#Cc1cccc(-c2nc(N)c3nc(Cc4c(F)cccc4CN4CC(C(=O)O)C4)nn3c2-c2ccncn2)c1 [Example 31, 1-(2-((8-Amino-6-(3-cyanophenyl)-5-(pyrimidin-4-yl)-[1,2,4]triazolo[1,5-a]pyrazin-2-yl)methyl)-3-fluorobenzyl)azetidine-3-carboxylic Acid] | < 10 | 10 to 100 | – | – | –
Cc1nc(C(O)C(F)F)c(-c2c(-c3cccc(C#N)c3F)nc(N)c3nc(Cc4ccccn4)nn23)o1 (stereo not drawn) [Example 87, 3-(8-amino-5-(4-(2,2-difluoro-1-hydroxyethyl)-2-methyloxazol-5-yl)-2-(pyridin-2-ylmethyl)-[1,2,4]triazolo[1,5-a]pyrazin-6-yl)-2-fluorobenzonitrile] | < 10 | 10 to 100 | – | – | –
CCn1nccc1-c1c(-c2cccc(C#N)c2)nc(N)c2nc(C(O)c3c(F)cccc3F)nn12 (single isomer, unassigned) [Example 93, 3-(8-amino-2-((2,6-difluorophenyl)(hydroxy)methyl)-5-(1-ethyl-1H-pyrazol-5-yl)-[1,2,4]triazolo[1,5-a]pyrazin-6-yl)benzonitrile] | – | – | – | < 10 | < 10
CN1CC[C@H](NCc2cccc(F)c2Cc2nc3c(N)nc(-c4cccc(C#N)c4F)cn3n2)C1=O [Example 84, (S)-3-(8-amino-2-(2-fluoro-6-(((1-methyl-2-oxopyrrolidin-3-yl)amino)methyl)benzyl)-[1,2,4]triazolo[1,5-a]pyrazin-6-yl)-2-fluorobenzonitrile] | < 10 | < 10 | – | – | –
N#Cc1cccc(-c2nc(N)c3nc(Cc4cccc5ccnn45)nn3c2-c2ccncn2)c1 [Example 46, 3-(8-Amino-2-(pyrazolo[1,5-a]pyridin-7-ylmethyl)-5-(pyrimidin-4-yl)-[1,2,4]triazolo[1,5-a]pyrazin-6-yl)benzonitrile] | < 10 | < 10 | – | – | –
N#Cc1cccc(-c2nc(N)c3nc(C(O)c4c(F)cccc4F)nn3c2-c2cnco2)c1 (single isomer, unassigned) [Example 106, 3-(8-amino-2-((2,6-difluorophenyl)(hydroxy)methyl)-5-(oxazol-5-yl)-[1,2,4]triazolo[1,5-a]pyrazin-6-yl)benzonitrile] | – | – | – | < 10 | < 10
N#Cc1cccc(-c2nc(N)c3cc(C(O)c4ccccc4F)nn3c2Br)c1 (stereo not drawn) [Example 22, 3-(4-Amino-7-bromo-2-((2-fluorophenyl)(hydroxy)methyl)pyrazolo[1,5-a]pyrazin-6-yl)benzonitrile] | < 10 | 100 to 1000 | – | – | –
N#Cc1cccc(-c2nc(N)c3nc(C(O)c4c(F)cccc4OC(F)F)nn3c2-c2ccncn2)c1 (single isomer, unassigned) [Example 97, 3-(8-amino-2-((2-(difluoromethoxy)-6-fluorophenyl)(hydroxy)methyl)-5-(pyrimidin-4-yl)-[1,2,4]triazolo[1,5-a]pyrazin-6-yl)benzonitrile] | – | < 10 | < 10 | – | –
Cc1ncoc1-c1c(-c2cccc(C#N)c2)nc(N)c2nc(Cc3ccccn3)nn12 [Example 42, 3-(8-Amino-5-(4-methyloxazol-5-yl)-2-(pyridin-2-ylmethyl)-[1,2,4]triazolo[1,5-a]pyrazin-6-yl)benzonitrile] | < 10 | < 10 | – | – | –
N#Cc1cccc(-c2nc(N)c3nc(Cn4ncc5ccccc54)nn3c2-c2ccncn2)c1 [Example 48, 3-(2-((1H-Indazol-1-yl)methyl)-8-amino-5-(pyrimidin-4-yl)-[1,2,4]triazolo[1,5-a]pyrazin-6-yl)benzonitrile] | < 10 | 10 to 100 | – | – | –
CN1CCC2(CN(Cc3cccc(F)c3Cc3nc4c(N)nc(-c5cccc(C#N)c5)c(-c5ccncn5)n4n3)C2)C1=O [Example 66, 3-(8-amino-2-(2-fluoro-6-((6-methyl-5-oxo-2,6-diazaspiro[3.4]octan-2-yl)methyl)benzyl)-5-(pyrimidin-4-yl)-[1,2,4]triazolo[1,5-a]pyrazin-6-yl)benzonitrile] | < 10 | < 10 | – | – | –
Cc1n[nH]cc1-c1c(-c2cccc(C#N)c2)nc(N)c2nc(C(O)c3c(F)cccc3F)nn12 (single isomer, unassigned) [Example 103, 3-(8-amino-2-((2,6-difluorophenyl)(hydroxy)methyl)-5-(3-methyl-1H-pyrazol-4-yl)-[1,2,4]triazolo[1,5-a]pyrazin-6-yl)benzonitrile] | – | – | – | < 10 | < 10
N#Cc1cccc(-c2nc(N)c3nc(C(=O)N4CCC4)nn3c2-c2ccncc2F)c1 [Example 125, 3-(8-amino-2-(azetidine-1-carbonyl)-5-(3-fluoropyridin-4-yl)-[1,2,4]triazolo[1,5-a]pyrazin-6-yl)benzonitrile] | < 10 | 10 to 100 | – | – | –
N#Cc1cccc(-c2nc(N)c3nc(C(O)c4cc(F)ccc4F)nn3c2-c2ccncn2)c1 (single isomer, unassigned) [Example 51, 3-(8-Amino-2-((2,5-difluorophenyl)(hydroxy)methyl)-5-(pyrimidin-4-yl)-[1,2,4]triazolo[1,5-a]pyrazin-6-yl)benzonitrile] | – | < 10 | < 10 | – | –
